From publication PMC11561238, “Discovery and binding mode of small molecule inhibitors of the apo form of human TDO2” (Scientific Reports, 2024)
“Also recorded” adds a separate entry of the source.

Tests used:
holo-TDO2 = biological target: T1, holo-TDO2 (Homo sapiens, UniProt P48775); assay: Heme competition by holo-TDO2 UV-VIS absorbance (Soret band); type: binding; conditions: 5 µM holo-TDO2, 20 µM inhibitor, 37 °C, up to 6 h
T1 construct: a construct encoding amino acids 19–406 of human TDO2 with an N-terminal six histidine tag; His6 (N); PreScission protease cleavage site (linker) (N); made in house; host or cells: E. coli BL21(DE3)
T1 sequence (P48775 19-406): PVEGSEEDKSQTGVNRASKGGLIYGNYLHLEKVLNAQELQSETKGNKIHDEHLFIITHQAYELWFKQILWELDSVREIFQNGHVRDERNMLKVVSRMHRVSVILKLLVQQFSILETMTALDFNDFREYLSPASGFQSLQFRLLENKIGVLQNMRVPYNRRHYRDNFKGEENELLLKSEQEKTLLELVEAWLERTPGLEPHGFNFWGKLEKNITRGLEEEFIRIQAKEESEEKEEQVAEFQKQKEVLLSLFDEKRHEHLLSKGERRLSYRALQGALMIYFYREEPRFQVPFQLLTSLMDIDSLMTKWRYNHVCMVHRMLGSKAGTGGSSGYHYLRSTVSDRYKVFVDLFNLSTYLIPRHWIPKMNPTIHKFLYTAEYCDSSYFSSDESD
Procedure: To explore whether the identified apo-binders could compete with heme-binding to TDO2, a UV-visible absorption spectrum of holo-TDO2 was measured in the absence or presence of compounds. […] A shifted Soret peak can indicate a heme protein-ligand interaction, and a reduced intensity indicates loss of protein bound heme (although free heme also absorbs with a peak at approximately 400 nm, it is very poorly soluble).
Fig. 2 The UV-VIS absorption spectrum of holo-TDO2 in the presence of Cpd-1 (A) or Cpd-2 (B) or the vehicle control. […] The increase of absorbance at 280 nm of holo-TDO2 in the presence of Cpd-1 or Cpd-2 compared to the vehicle control is likely due to compound absorbance at this wavelength.
A UV − visible spectra study was performed to evaluate the binding of the compounds. The holo-TDO2 absorbance spectra were measured using a BioTek Synergy multimode reader (Agilent) for wavelengths from 250 to 600 nm in 1 nm increments. 5 µM holo-TDO2 was incubated at 37 °C with 20 µM compounds or DMSO in phosphate buffer supplemented with 0.01% Tween-20 in a 96 well UV compatible plate (Corning #3679) and absorbance was measured before (t = 0 h) and after 2–6 h of incubation.

human TDO2 = biological target: T2, human TDO2 (Homo sapiens, UniProt P48775); assay: TDO2 cellular activity assay (SW48 cells, NFK + KYN in supernatant by LCMS); type: cell-based; conditions: 24 h, 200 µM Trp
T2 construct: SW48 cells, which express a high level of endogenous TDO2; endogenous in cells; host or cells: SW48 cells (ATCC CCL-231)
T2 sequence (P48775 whole entry): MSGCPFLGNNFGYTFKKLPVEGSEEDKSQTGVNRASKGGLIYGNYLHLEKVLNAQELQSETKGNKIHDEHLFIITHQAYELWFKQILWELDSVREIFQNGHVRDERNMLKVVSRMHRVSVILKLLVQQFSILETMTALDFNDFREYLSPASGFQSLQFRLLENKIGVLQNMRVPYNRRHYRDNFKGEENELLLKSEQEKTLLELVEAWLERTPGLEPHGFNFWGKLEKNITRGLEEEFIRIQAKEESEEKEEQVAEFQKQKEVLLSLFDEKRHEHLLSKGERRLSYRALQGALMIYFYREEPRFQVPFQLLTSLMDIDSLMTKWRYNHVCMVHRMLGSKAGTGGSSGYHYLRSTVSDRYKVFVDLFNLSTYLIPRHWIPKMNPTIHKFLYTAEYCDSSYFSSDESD
Procedure: The inhibitor compound 1 (Cpd-1) (IUPAC name ethyl 9-(3-(2-propylphenyl)-1-(1-phenylethyl)ureido)-2-methoxy-4-oxo-6,7,8,9-tetrahydro-4H-pyrido[1,2-a]pyrimidine-3-carboxylate) was identified as a hit in a high throughput screening campaign of a diverse set of 244,625 compounds in a human TDO2 cellular assay utilizing SW48 cells, which express a high level of endogenous TDO2. TDO2 activity was assessed by measuring the accumulation of the TDO2 product NFK and downstream product KYN in the supernatant. The potent inhibitor compound 2 (Cpd-2) (IUPAC name ethyl 9-(3-(2-isopropylphenyl)-1-((S)-1-phenylethyl)ureido)-2-methoxy-4-oxo-6,7,8,9-tetrahydro-4H-pyrido[1,2-a]pyrimidine-3-carboxylate) was identified during initial structure activity relationship studies of Cpd-1 analogs.
SW48 cells (source: American Type Culture Collection (ATCC), CCL-231) were used to measure the TDO2 inhibitory activity of compounds and were routinely maintained in DMEM high glucose/GlutaMAX^TM/pyruvate (Gibco, 10569010) 90% (v/v), FCS (Gibco, 10500, heat inactivated)10% (v/v), Penicillin/streptomycin (Gibco, 15140) 1% (v/v). […]
The 384 deep well plate containing 3 µl supernatant and 25 µl H2O per well were further processed for LCMS. […] NFK and kynurenine were quantified by LCMS, normalized to the internal standard Trp-(indole-d5) and the sum was calculated. […]

[1] = biological target: T3, recombinant human TDO2 (holo-TDO2) (Homo sapiens, UniProt P48775); assay: Holo-TDO2 enzymatic assay; type: biochemical
T3 construct: a construct encoding amino acids 19–406 of human TDO2 with an N-terminal six histidine tag; PreScission protease cleavage site (linker) (N); made in house; host or cells: E. coli BL21(DE3)
T3 sequence (P48775 19-406): as the sequence (P48775 19-406) above
Procedure: The IC50 curve is shown in supplementary Fig. S1 online. We speculate that the observed IC50 shift may be due to the kinetics of heme dissociation from holo-TDO2 and/or the absence of alternative heme binding proteins in the assay system. The structurally similar Cpd-2 was not tested in the enzymatic assay.
For the enzymatic assay, recombinant human TDO2 comprising amino acids […] with a N-terminal hexahistidine tag, expressed in Escherichia coli and purified to homogeneity, was incubated in assay buffer consisting of 75 mM phosphate buffer at pH 7.0 supplemented with 100 µM ascorbic acid, 50 U/ml catalase, 0.01% bovine serum albumin (BSA), and 0.01% Tween 20 (protocol modified from[45]).

Row | IC50 (human TDO2) | IC50 ([1]; 30 min assay at room temperature after 30 min pre-incubation with holo-TDO2, read-out: enzymatic assay IC50 (holo form of TDO2)) | fold less potent in enzymatic assay than in the cellular assay ([1]; enzymatic IC50 vs TDO2 cellular IC50) | SMILES | Soret band (405 nm) intensity of holo-TDO2 absorption spectrum (holo-TDO2)
1 | 14.8 nM |  |  | CCOC(=O)c1c(OC)nc2n(c1=O)CCCC2N(C(=O)Nc1ccccc1C(C)C)[C@@H](C)c1ccccc1 (mixture of isomers) [Cpd-2, ethyl 9-(3-(2-isopropylphenyl)-1-((S)-1-phenylethyl)ureido)-2-methoxy-4-oxo-6,7,8,9-tetrahydro-4H-pyrido[1,2-a]pyrimidine-3-carboxylate] | clear time-dependent reduction in the Soret band intensity; also recorded: reduction of the absorbance peak at 405 nm
2 | 327 nM | 17400 nM | 53 fold | CCCc1ccccc1NC(=O)N(C(C)c1ccccc1)C1CCCn2c1nc(OC)c(C(=O)OCC)c2=O (stereo not drawn) [Cpd-1, ethyl 9-(3-(2-propylphenyl)-1-(1-phenylethyl)ureido)-2-methoxy-4-oxo-6,7,8,9-tetrahydro-4H-pyrido[1,2-a]pyrimidine-3-carboxylate] | clear time-dependent reduction in the Soret band intensity; also recorded: reduction of the absorbance peak at 405 nm
